Source: patent US20110313001A1, “TRIAZOLE DERIVATIVES FOR TREATMENT OF ALZHEIMER'S DISEASE” (priority 2008, published 2011)
Structures can show the parent of a compound that is named as a salt.

Tested on: Aβ(1-42)
Assay: Cell-based γ-secretase assay, Aβ(1-42) inhibition
Conditions: Homo sapiens; SH-SY5Y neuroblastoma cells overexpressing SPA4CT
Experimental: Cell-Based γ-Secretase Assay
Human SH-SY5Y neuroblastoma cells overexpressing the direct γ-secretase substrate SPA4CT were induced with sodium butyrate (10 mM) for 4 hours prior to plating. Cells were plated at 35,000 cells/well/100 μl in 96-well plates in phenol red-free MEM/10% FBS, 50 mM HEPES, 1% Glutamine and incubated for 2 hrs at 37° C., 5% CO2.
Compounds for testing were diluted into Me2SO to give a ten point dose-response curve. Typically 10 μl of these diluted compounds in Me2SO were further diluted into 182 μl dilution buffer (phenol red-free MEM/10% FBS, 50 mM HEPES, 1% Glutamine) and 10 μl of each dilution was added to the cells in 96-well plates (yielding a final Me2SO concentration of 0.5%). Appropriate vehicle and inhibitor controls were used to determine the window of the assay.
After incubation overnight at 37° C., 5% CO2, 25 μl and 50 μl media were transferred into a standard Meso avidin-coated 96-well plate for detection of Aβ(40) and Aβ(42) peptides, respectively. 25 μl Meso Assay buffer (PBS, 2% BSA, 0.2% Tween-20) was added to the Aβ(40) wells followed by the addition of 25 μl of the respective antibody premixes to the wells:
Aβ(40) premix: 1 μg/ml ruthenylated G2-10 antibody, 4 μg/ml; and biotinylated 4G8 antibody diluted in Origen buffer
Aβ(42) premix: 1 μg/ml ruthenylated G2-11 antibody, 4 μg/ml; and biotinylated 4G8 antibody diluted in Origen buffer
(Biotinylated 4G8 antibody supplied by Signet Pathology Ltd; G2-10 and G2-11 antibodies supplied by Chemicon)
After overnight incubation of the assay plates on a shaker at 4° C., the Meso Scale Sector 6000 Imager was calibrated according to the manufacturer's instructions. After washing the plates 3 times with 150 μl of PBS per well, 150 μl Meso Scale Discovery read buffer was added to each well and the plates were read on the Sector 6000 Imager according to the manufacturer's instructions.
LD50 and IC50 values for inhibition of Aβ(40) and Aβ(42) were calculated by nonlinear regression fit analysis using the appropriate software (eg. Excel fit). The total signal and the background were defined by the corresponding Me2SO and inhibitor controls.

Row | SMILES | IC50 [nM]
1 | COc1cc(-c2cn(Cc3ccc(-c4nc5ccccc5o4)cc3)nn2)ccc1-c1ccnc(C)c1 [Example 5] | 392
2 | COc1cc(-c2cn(Cc3cc(C(F)(F)F)cc(C(F)(F)F)c3)nn2)ccc1-c1ccnc(C)c1 [Example 1, 4-{4-[1-(3,5-Bis-trifluoromethyl-benzyl)-1H-1,2,3-triazol-4-yl]-2-methoxy-phenyl}-2-methyl-pyridine trifluoromethansulfonate salt] | 203
3 | COc1cc(-c2cn(Cc3ccc4c(c3)C(C)(C)CCC4(C)C)nn2)ccc1-c1ccnc(C)c1 [Example 6] | 172

Next, values leading:

Row | IC50 [nM] | SMILES
4 | 335 | COc1cc(-c2cn(Cc3ccc(C(C)(C)C)cc3)nn2)ccc1-c1ccnc(C)c1 [Example 3]
5 | 598 | COc1cc(-c2cn(Cc3cc(F)cc(Cl)c3)nn2)ccc1-c1ccnc(C)c1 [Example 4]
